{
  "source": "patent US20230107216A1",
  "about": "“PANTETHEINE DERIVATIVES AND USES THEREOF” (Comet Therapeutics, Inc., priority 2018, published 2023)",
  "data": [
    {"system": "oligodendrocyte precursor cells (OPC) in mixed brain cultures", "test": "Oligodendrocyte precursor cells (OPC) proliferation, O4+ cell count", "assay_type": "cell-based, mouse", "conditions": "10 uM", "experimental": "The effect of compounds of the present disclosure was determined on oligodendrocyte precursor cells proliferation (OPC).\nCell culture. Brains of wild type mice (whole brain from 1 or 2 mouse pups) less than postnatal day (P) 2 were isolated and cultured. Briefly, following removal of the meninges, cells were dissociated with 0.25% EDTA/CMF-DMEM and 1% Trypsin (1:1), plated at a density of 75,000 cells/on 0.1 mg/ml poly-L-lysine coated borosilicate glass coverslips in 24-well plates, grown in OPC differentiation media (Oligo media) consisting of DMEM/F12 (Invitrogen 21331-020) supplemented with 1% FBS, 1% N2 Neural Supplement (Invitrogen 17502-048) and PDGF receptor alpha growth factor (Invitrogen 17502-048). Cells were fed every other day and allowed to grow for 7 days in vitro (DIV).\nOPCs treatment with compounds of the present disclosure. Cells were treated with compounds of the present disclosure (50-10 μM) or vehicle (0.1% DMSO) starting at 7 DIV. Media was replaced daily with freshly made working solutions of compounds or vehicle for either 48 h (9 DIV total) or 96 h (11 DIV). The 48 h group consisted of 1 coverslip per condition. The 96 h group was treated in duplicate.\nFresh aliquots of compounds of the present disclosure were made up on the day of treatment, briefly, a 50 mM stock was thawed and used to make up fresh 50 μM working solution in Oligo Media. The fresh 50 μM working solution was diluted further in Oligo Media to make 10 μM working solution. Vehicle controls was made up in fresh Oligo Media using the appropriate amount of vehicle (DMSO). Coverslips were stored in clean 24-well plates at 4° C. until fixed-staining. Cells were imaged using Leica DM5500 fluorescent microscope with LAS-X software.\nExposure settings were maintained at the same rate across compounds of the same time-point. Cells were imaged at 20× and 40× magnifications. At least 5 images were taken per condition. Most conditions had at least 5 images that were counted. 20× images were utilized for counting DAPI (cell nuclei) and O4+ cells.\nTotal DAPI per image for all images was counted using ImageJ as here indicated. • Image was converted to 8 bit • Blue Channel (DAPI) was automatically thresholded by default ImageJ settings • Image noise was reduced by ImageJ>Process>Noise>Despeckle • ImageJ>Process>Binary>Watershed was used to automatically separate merged cell nuclei • ImageJ>Analyze>Analyze Particles was used to obtain final count of DAPI per image • Total number of DAPI-positive cells\nTotal number of O4+ cells per 20× image was manually counted using Adobe Photoshop: • All cell bodies of OPCs with underlying DAPI stain were counted as an O4+ cell • Total number of O4+ cells were recorded in Excel Spreadsheet O4+ cells in mixed brain cultures of wild type mice <P2 treated with compounds of the present disclosure or vehicle were quantified per condition (time point and concentration). The following formula was used to normalize the total cell counts within a compound as well as across compounds treated for the same duration (48h vs. 96h):\n(number of O4+cell counts in Compound X/Average DAPI count for Compound X)*Total Average DAPI count across compounds of same Time Point\nValues were plotted as Scatter Interval plots in Origin. Each data point represents a single image from which O4+ cell values were obtained. Data are presented as mean±S.E.\nImages are at 20× magnification and represent 1-2 coverslips per group. Scale bar, 50 μm.", "units": {"% Increase OPC proliferation": "%"}, "values": [
      {"smiles": "CC(C)(CO)[C@@H](O)C(=O)NCCC(=O)NCCSC(=O)CCC(=O)O", "note": "[Compound 1, (R)-4-((2-(3-(2,4-dihydroxy-3,3-dimethylbutanamido)propanamido)ethyl)thio)-4-oxobutanoic acid]", "% Increase OPC proliferation": "≥25"},
      {"smiles": "C[C@@H](O)CC(=O)SCCNC(=O)CCNC(=O)[C@H](O)C(C)(C)CO", "note": "[Compound 38, S-2-{3-[(R)-2,4-dihydroxy-3,3-dimethylbutyrylamino]propionylamino} ethyl (R)-3-hydroxybutanethioate]", "% Increase OPC proliferation": "≥25"},
      {"smiles": "CC(C)(CO)[C@@H](O)C(=O)NCCC(=O)NCCSC(=O)CCCN", "note": "[Compound 370, (2R)—N-[2-([2-[(4-aminobutanoyl)sulfanyl]ethyl]carbamoyl)ethyl]-2,4-dihydroxy-3,3-dimethylbutanamide]", "% Increase OPC proliferation": "≥10"},
      {"smiles": "COC(=O)CC(C(C)=O)C(=O)SCCNC(=O)CCNC(=O)[C@H](O)C(C)(C)CO", "note": "(some centres unmarked) [Compound 410]", "% Increase OPC proliferation": "≥25"},
      {"smiles": "CC(=O)SCCNC(=O)CCNC(=O)[C@H](O)C(C)(C)COC(=O)[C@@H](N)Cc1ccc(O)c(O)c1", "note": "[Compound 498, (3R)-3-[(2-[[2-(acetylsulfanyl)ethyl]carbamoyl]ethyl)carbamoyl]-3-hydroxy-2,2-dimethylpropyl (2S)-2-amino-3-(3,4-dihydroxyphenyl)propanoate]", "% Increase OPC proliferation": "≥25"}
    ]}
  ]
}
